From patent US8084621B2, “3-Pyrrolo[b]cyclohexylene-2-dihydroindolinone derivatives and uses thereof” (Jiangsu Simcere Pharmaceutical R&D Co. Ltd., priority 2006, dated 2011)

Assays:
Assay type in all cases: cell-based
[1] = test system: Human Colon Cancer Cell Line (HT-29); assay: Tumor cell proliferation assay (MTT), HT29; details: for inhibition at 10 µM: concentration of 10^−5 mol/L, preliminary screening, 72 hours, read-out: Inhibition rate % HT29; for IC50: secondary screening, 48 hours
[2] = test system: Human Pancreatic Carcinoma Cell Line (BXPC-3); assay: Tumor cell proliferation assay (MTT), BXPC-3; details: for inhibition at 10 µM: concentration of 10^−5 mol/L, preliminary screening, 72 hours, read-out: Inhibition rate % BXPC-3; for IC50: secondary screening, 48 hours
[3] = test system: Human Ovarian Cancer Cell Line (SK-OV-3); assay: Tumor cell proliferation assay (MTT), SK-OV-3; details: for inhibition at 10 µM: concentration of 10^−5 mol/L, preliminary screening, 72 hours, read-out: Inhibition rate % SK-OV-3; for IC50: secondary screening, 48 hours
[4] = test system: Human Pancreatic Carcinoma Cells (PANC-1); assay: Tumor cell proliferation assay (MTT), PANC-1; details: for inhibition at 10 µM: concentration of 10^−5 mol/L, preliminary screening, 72 hours, read-out: Inhibition rate % PANC-1; for IC50: secondary screening, 48 hours
[5] = test system: Human Gastric Cancer Cell Line (BGC); assay: Tumor cell proliferation assay (MTT), BGC; details: for inhibition at 10 µM: concentration of 10^−5 mol/L, preliminary screening, 72 hours, read-out: Inhibition rate % BGC; for IC50: secondary screening, 48 hours

SMILES	IC50 [1] [nM]	IC50 [2] [nM]	IC50 [3] [nM]	IC50 [4] [nM]	IC50 [5] [nM]	inhibition at 10 µM [1] [%]	inhibition at 10 µM [2] [%]	inhibition at 10 µM [3] [%]	inhibition at 10 µM [4] [%]	inhibition at 10 µM [5] [%]
CCN(CC)CCNC(=O)c1c(C)[nH]c2c1CCC/C2=C1/C(=O)Nc2ccc(Cl)cc21 [I-3, N-(2-(diethylamino)ethyl)-2-methyl-7-[1,2-dihydro-5-chloro-2-oxo-3H-indol-(Z)-3-ylidene]-4,5,6,7-tetrahydro-1H-indole-3-carboxamide]	6480	1950	2990	1940	2030	65.1	96	86.7	69.8	78.1
Cc1[nH]c2c(c1C(=O)NCC(O)CN1CCOCC1)CCC/C2=C1/C(=O)Nc2ccc(F)cc21 (centres unmarked) [I-68, N-(2-hydroxy-3-morpholinopropyl)-2-methyl-7-[1,2-dihydro-5-fluoro-2-oxo-3H-indol-(Z)-3-ylidene]-4,5,6,7-tetrahydro-1H-indole-3-carboxamide]		6490			7590	31.3	60.7	11.1	34.3	55.4
CCN(CC)CC(O)CNC(=O)c1c(C)[nH]c2c1CCC/C2=C1/C(=O)Nc2ccccc21 (centres unmarked) [I-63, N-(3-(diethylamino)-2-hydroxypropyl)-2-methyl-7-[1,2-dihydro-2-oxo-3H-indol-(Z)-3-ylidene]-4,5,6,7-tetrahydro-1H-indole-3-carboxamide]	1020	1160	1350	660	1850	92.7	97.3	94	92.1	80.8
Cc1[nH]c2c(c1C(=O)NCC(O)CN1CCCCC1)CCC/C2=C1/C(=O)Nc2ccccc21 (centres unmarked) [I-73, N-(2-hydroxy-3-(piperidin-1-yl)propyl)-2-methyl-7-[1,2-dihydro-2-oxo-3H-indol-(Z)-3-ylidene]-4,5,6,7-tetrahydro-1H-indole-3-carboxamide]	640	1240			10200	95.6	90.2	71.9	48	48.8

Now from value to compound, other results behind:

IC50 [1] [nM]	IC50 [2] [nM]	IC50 [3] [nM]	IC50 [4] [nM]	IC50 [5] [nM]	SMILES	inhibition at 10 µM [1] [%]	inhibition at 10 µM [2] [%]	inhibition at 10 µM [3] [%]	inhibition at 10 µM [4] [%]	inhibition at 10 µM [5] [%]
1200	520			6110	CCN(CC)CCNC(=O)c1c(C)[nH]c2c1CCC/C2=C1/C(=O)Nc2ccc(F)cc21 [I-2, N-(2-(diethylamino)ethyl)-2-methyl-7-[1,2-dihydro-5-fluoro-2-oxo-3H-indol-(Z)-3-ylidene]-4,5,6,7-tetrahydro-1H-indole-3-carboxamide]	97.4	79.4	92.2	70.6	71
930	970	1140	1630	1490	Cc1[nH]c2c(c1C(=O)NCC(O)CN1CCCC1)CCC/C2=C1/C(=O)Nc2ccccc21 (centres unmarked) [I-70, N-(2-hydroxy-3-(pyrrolidin-1-yl)propyl)-2-methyl-7-[1,2-dihydro-2-oxo-3H-indol-(Z)-3-ylidene]-4,5,6,7-tetrahydro-1H-indole-3-carboxamide]	94.7	98.7	95.6	97.4	84.8
540	520			6730	CCN(CC)CCNC(=O)c1c(C)[nH]c2c1CCC/C2=C1/C(=O)Nc2ccccc21 [I-5, N-(2-(diethylamino)ethyl)-2-methyl-7-[1,2-dihydro-2-oxo-3H-indol-(Z)-3-ylidene]-4,5,6,7-tetrahydro-1H-indole-3-carboxamide]	91.5	89.4	77.5	47.8	64
3060	3430	3040	6630	2760	Cc1[nH]c2c(c1C(=O)NCCCN(C)C)CCC/C2=C1/C(=O)Nc2ccc(Cl)cc21 [I-7, N-(3-(dimethylamino)propyl)-2-methyl-7-[1,2-dihydro-5-chloro-2-oxo-3H-indol-(Z)-3-ylidene]-4,5,6,7-tetrahydro-1H-indole-3-carboxamide]	78.4	69.5	63.3	51.8	75.9
